Assay results reported in patent US20210069295A1, “GALECTINS CONTROL MTOR IN RESPONSE TO ENDOMEMBRANE DAMAGE AND PROVIDE A MECHANISM AND TARGET FOR THE TREATMENT OF AUTOPHAGY-RELATED DISEASES” (STC. UNM, priority 2017, published 2021).
Peptide text beside a SMILES is read from it.

Tested on: Ragulator-Rag complex
Test: Co-immunoprecipitation of Ragulator, Rag GTPases and mTOR/Raptor in HEK293T cells
Assay type: cell-based
Conditions: 100 μM GPN 1 h
Description: (A) Analysis of mTOR activity in TSC2-deleted (TSC2−/−) and wildtype (TSC2WT) HeLa cells treated with 100 μM GPN in full medium (Full) or starved in EBSS for 1 h. mTOR activity was monitored by immunoblotting analysis of S6K1 (T389) phosphorylation (phosphorylated S6K (p-T389) relative to total S6K). Ctrl, control (untreated cells). (B) Co-immunoprecipitation analysis of changes in interactions between Ragulator and Rag GTPases following treatment with GPN. HEK293T cells stably expressing FLAG-metap2 (control) or FLAG-p14 were treated with 100 μM GPN in full medium for 1 h. Cell lysates were immunoprecipitated (IP) with anti-FLAG antibody and immunoblotted for endogenous RagA or RagC. […] (D) Analysis of mTOR activity in HEK293T cells or HEK293T cells stably expressing constitutively active RagB GTPase (RagBQ99L) treated with 100 μM GPN in full medium or starved in EBSS for 1 h. mTOR activity was monitored as in A. Data, means±SEM, (n=3), † not significant, **p<0.01, ANOVA. […] (F) Quantification by HC of overlaps between mTOR and LAMP2 (representative images shown in FIG. S2C) in HEK293T cells and HEK293T cells stably expressing constitutively active RagB GTPase (RagBQ99L) treated with 100 μM GPN in full medium for 1 h. Data, means±SEM, n≥3 independent experiments (500 primary objects counted per well; ≥5 wells/sample per each experiment); † p≥0.05, *p<0.05, ANOVA. […]

NCC(=O)N[C@@H](Cc1ccccc1)C(=O)Nc1ccc2ccccc2c1 [GPN, glycyl-L-phenylalanine 2-naphththylamide] (HELM PEPTIDE1{G.F.[c1ccc2cc(N[*:1])ccc2c1]}$$$$V2.0)
interactions between Ragulator (p14 and p18) and RagA/RagC in co-IPs: enhanced interactions
mTOR and Raptor levels in complexes with RagB or RagA: diminished mTOR and Raptor levels
